Legend:
Format in all cases: cell-based
[1] = molecular target: EDG-1 (Homo sapiens, UniProt P21453); experiment: NF-κB luciferase reporter in 293-EBNA cells, EDG-1; settings: Assay 3; 3 μM; 6 hours
Method: The protocol described in Example 11 for Assay 1 was allowed except for the following changes: • 1) 100 mm plates of 293-EBNA ith a confluency of ˜80% were used for transfection, • 2) SRE Cotransfection: 0.5 μg of 2XSREtk-p4Luc-zeo reporter DNA and 3.5 μg pcDNA3, EDG-1, EDG-3 pC3-hE3P2, different from the clone used in Assay 2 of Example 11) or the newly cloned human EDG-4 (pC3-hedg4#36); NF-κB Cotransfection: 2 μg 6XNFκBtk-p4LUc-zeo reporter DNA and 2.0 μg pcDNA3, EDG-1, EDG-3 (pC3-hE3HP2), or EDG-4 (pC3-hedg4#36). Expression plasmid and reporter plasmid DNA samples were combined and diluted in 750 μl of DMEM/F12 (serum free media) and 20 μl Plus Reagent (Lipofectamine Plus Kit, Life Technologies Cat. 109640-13), and incubated at room temperature for 15 min. • 3) 30 μl Lipofectamine Reagent (Lipofectamine Plus Kit) was diluted in 750 μl DMEM/F12. The diluted Lipofectamine was then combined with the DNA/Plus mixture and incubated at room temperature for 15 min. • 4) The 293-EBNA plates were washed once with PBS and 5 ml DMEM/F12 was added to each plate. • 5) DNA/Plus/Lipofectamine mixture was added to each plate of 293-EBNA cells. […]

[2] = system: EDG-7; experiment: SRE reporter, EDG-7
[3] = system: COS-1 cells; experiment: IL-8 response in control COS-1 cells (empty vector pcDNA3); settings: control cells transfected with pcDNA3; 5 μm S1P
[4] = system: EDG-7; experiment: NF-κB reporter, EDG-7
[5] = molecular target: T1, EDG-2 (Homo sapiens, UniProt Q92633); experiment: NF-κB reporter in 293-EBNA cells, EDG-2; settings: 10 μM LPA overnight
T1 construct: expressed in transfected cells; host or cells: 293-EBNA
T1 sequence (Q92633 whole entry): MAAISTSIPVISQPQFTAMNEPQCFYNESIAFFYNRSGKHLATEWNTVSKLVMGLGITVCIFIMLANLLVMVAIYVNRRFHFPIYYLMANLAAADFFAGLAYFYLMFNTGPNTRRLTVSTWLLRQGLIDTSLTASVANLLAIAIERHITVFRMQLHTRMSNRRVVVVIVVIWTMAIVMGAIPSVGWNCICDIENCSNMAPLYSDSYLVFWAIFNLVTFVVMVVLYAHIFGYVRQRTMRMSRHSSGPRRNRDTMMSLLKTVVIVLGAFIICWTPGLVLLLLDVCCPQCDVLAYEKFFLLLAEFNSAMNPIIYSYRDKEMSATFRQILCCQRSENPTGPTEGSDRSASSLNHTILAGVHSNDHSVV
Text: (§1) LPA, like S1P, is abundant in serum, but not plasma. Moreover, LPA is produced as a consequence of phospholipase A2 with or without the contribution of phospholipase D (depending on the phospholipid substrate). […] To date we have identified three subtypes of edg receptors that respond to LPA as an agonist. These are EDG-2, […] (referred to also as LPA1, LPA2 and LPA3, respectively (Chun, J, Contos, JJA and Munroe, DG. 1998. A growing family of receptor genes for lysophophatidid acid (LPA) and other lyso-phospholipids. Cell Biochem Biophys (in press)). The EDG-5 receptor is set out in co-pending U.S. application Ser. No. 08/997,803 to MUNROE et al., incorporated herein to reference and the amino acid sequence and cDNA sequence for the EDG-6 receptor is set out in FIGS. 21 and 22, respectively. To determine whether these receptors might mediate inflammatory responses, each was cotransfected separately with SRE, NF-κB or AP-1 reporter genes. […] This transcription factor, like NF-κB has been implicated in inflammatory and neoplastic signal transduction, though the gene targets of its action are largely distinct from those of NF-κB (Adcock I M. 1997. Transcription factors as activators of gene transcription; AP-1 and NF-κB. Monaldi Arch Chest Dis 52:178–186. Review). […]

[6] = molecular target: T2, EDG-6 (Homo sapiens, UniProt Q9HBW0); experiment: NF-κB reporter in 293-EBNA cells, EDG-6; settings: 10 μM LPA overnight
T2 construct: expressed in transfected cells; host or cells: 293-EBNA
T2 sequence (Q9HBW0 with tags, fused parts or gaps): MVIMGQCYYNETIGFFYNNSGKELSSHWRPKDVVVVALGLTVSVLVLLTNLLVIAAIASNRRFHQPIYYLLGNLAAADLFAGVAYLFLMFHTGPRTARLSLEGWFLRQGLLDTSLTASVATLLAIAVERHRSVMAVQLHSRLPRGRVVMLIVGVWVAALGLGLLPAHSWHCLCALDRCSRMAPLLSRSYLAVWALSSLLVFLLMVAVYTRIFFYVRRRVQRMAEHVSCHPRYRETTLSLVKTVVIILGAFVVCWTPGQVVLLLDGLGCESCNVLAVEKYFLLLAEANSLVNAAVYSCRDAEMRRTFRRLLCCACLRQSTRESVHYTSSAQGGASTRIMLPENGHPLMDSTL
Text: as §1

[7] = molecular target: T2, EDG-6; experiment: AP-1 reporter in 293-EBNA cells, EDG-6; settings: 10 μM LPA
Text: as §1

[8] = system: pcDNA3-transfected 293-EBNA cells; experiment: AP-1 reporter in 293-EBNA cells, empty vector pcDNA3; settings: 10 μM LPA
Text: as §1

[9] = molecular target: T3, human EDG-5 (Homo sapiens, UniProt Q9UBY5); experiment: NF-κB luciferase reporter in 293-EBNA cells, human EDG-5; settings: 10 μM LPA overnight
T3 construct: expressed in transfected cells; host or cells: 293-EBNA
T3 sequence (Q9UBY5 1-353): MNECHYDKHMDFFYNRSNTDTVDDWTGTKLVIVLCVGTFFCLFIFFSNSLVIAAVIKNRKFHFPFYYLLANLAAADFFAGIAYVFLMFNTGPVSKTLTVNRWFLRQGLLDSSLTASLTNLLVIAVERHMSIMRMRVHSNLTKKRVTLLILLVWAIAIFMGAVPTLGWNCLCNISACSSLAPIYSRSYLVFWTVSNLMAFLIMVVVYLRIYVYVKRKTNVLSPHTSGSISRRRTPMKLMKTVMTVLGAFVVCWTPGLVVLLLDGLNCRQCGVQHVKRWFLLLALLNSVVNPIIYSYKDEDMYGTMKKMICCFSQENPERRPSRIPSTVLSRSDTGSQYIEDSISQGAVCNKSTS
Method: The above protocol for assay 1 was followed except for the following changes: • 1) 100 mm plates of 293-EBNA with a confluency of ˜80% were used for transfection. • 2) 3 μg NFκB-tk-p4Luc reporter DNA and 3 μg pC3-hedg1, pC3-hedg 3, pC3-redg4, pC3-hedg5 or pcDNA3 DNA was diluted in 240 μl OPTI-MEM (Gibco; Cat. 31985-062) • 3) 22 μl lipofectamine (Gibco; Cat. 1 8324-020) was diluted in 240 μl OPTI-MEM. • 4) The 293-EBNA plates were washed once with PBS and 7 ml OPTI-MEM was added to each plate. • 5) DNA/lipofectamine mixture was added to each plate of 293-EBNA cells. The plates were left for 4 hrs at 37° C. in a 5% CO2 incubator. Day 2: • 1) 0.01×10^6 cells were plated per well of 96-well Blackview plate coated with polyD-lysine. No cells were plated in the outside wells of the 96-well plate. Day 3: The following treatments were used for all transections:
293-EBNA cells were grown, lipofected in monolayer cultures, and pretreated as described above for Example 11, assay #1, except that NF-κB and AP-1 reporter-transfected cells were preteated for 6 hr in medium containing 0.5% […], then treated overnight in the same medium with or without 10 μM LPA.

[10] = molecular target: T2, EDG-6; experiment: SRE reporter in 293-EBNA cells, EDG-6; settings: 10 μM LPA
Text: as §1

Sequence of EDG-1 (P21453 whole entry): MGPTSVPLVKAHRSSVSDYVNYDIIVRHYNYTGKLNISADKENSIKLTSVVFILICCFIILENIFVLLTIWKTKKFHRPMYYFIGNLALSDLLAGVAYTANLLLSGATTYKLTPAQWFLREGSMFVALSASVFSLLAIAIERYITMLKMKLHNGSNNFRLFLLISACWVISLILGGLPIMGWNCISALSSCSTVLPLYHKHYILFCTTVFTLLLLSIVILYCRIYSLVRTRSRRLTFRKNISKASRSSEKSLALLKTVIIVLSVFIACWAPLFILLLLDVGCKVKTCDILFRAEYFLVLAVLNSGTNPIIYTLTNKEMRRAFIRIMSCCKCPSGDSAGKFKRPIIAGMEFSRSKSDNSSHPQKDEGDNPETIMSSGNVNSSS

activation of the NF-κB reporter [5]	activation of the NF-κB reporter [6]	induction of the AP-1 reporter [7]	activation of the NF-κB reporter [9]	induction of the SRE reporter [10]	Compound	luciferase activity (NF-κB reporter) [1]	SRE reporter response [2]	IL-8 response to S1P [3]	NF-κB reporter response [4]	endogenous AP-1 reporter response vs untreated control cells [8]
					CCCCCCCCCCCCC/C=C/[C@@H](O)[C@@H](N)COP(=O)(O)O [S1P, sphingosine 1-phosphate]	no increase in luciferase activity	respond through the SRE reporter	No IL-8	fail to signal through NF-κB reporters	
3–4 fold	3–4 fold	strongly induced	3–4 fold	strongly induced	lysophosphatidic acid [LPA]					about 1.5 fold
